{
  "source": "patent US4057644A",
  "about": "“Active derivatives of methylamine in therapeutic compositions and methods of use” (priority 1976, dated 1977)",
  "key": {"mice": {"tested_on": "mice", "settings": "for Index LD50/ED20-30: LD50 mice oral / dose giving 20 to 30% inhibition of catatonia; for Index LD50/ED100: LD50 mice oral / dose giving 100% inhibition of catatonia"}, "in vivo": {"experiment": "in vivo", "settings": "mouse, po"}, "[1]": {"tested_on": "neuroleptic-induced catatonia (prochlorperazine)", "experiment": "Inhibition of neuroleptic-induced catatonia", "assay_type": "in vivo, rat (male, OFA strain)", "settings": "rat, oral; for activity compared with amantadine (neuroleptic-induced catatonia): versus amantadine", "experimental": "The blocking of dopaminergic receptors by neuroleptics in the extra-pyramidal system induces catatonia in the rat. Catatonia is differentiated from sedative properties by means of the test used hereabove for reserpine-induced catatonia. The same system of scoring was also employed in the present case.\nAn oral dose of the compound to be studied in aqueous solution was administered to batches of 10 male rats of the OFA strain weighing about 150 to 200 g.\nThree hours after the injection of this latter compound, catatonia was measured. An identical trial was also carried out with control animals which received prochlorperazine but none of the compounds under study."}, "[2]": {"tested_on": "reserpine-induced catatonia", "experiment": "Inhibition of reserpine-induced catatonia", "assay_type": "in vivo, rat (male, OFA strain)", "settings": "rat, oral", "experimental": "Ater sufficient doses of reserpine have been administered to the rat, a series of symptoms occur, more particularly ptosis, catatonia and a drop in central temperature. These symptoms are caused by the depletion of the intrangranular reserve pool of biogenetic amines at the synaptic terminals.\nAn oral dose of the compound to be studied in aqueous solution was administered to batches of 10 male rats of the OFA strain weighing about 150 to 200 g. Thirty minutes later a dose of 5 mg/kg of reserpine was given by intraperitoneal route. Three hours after the injection of reserpine, the animals were suspended by the four paws to a horizontally stretched wire fixed at 15 cm from the ground. The catatonic animals were those which maintained the position so given for at least 30 seconds. […] The maximum score was therefore 10 per batch. An identical trial was undertaken with control animals which received reserpine but none of the compounds being studied."}, "[3]": {"settings": "J. Amer. Chem. Soc., 71, 3352 (1949); cited from earlier work"}, "[4]": {"settings": "J. Amer. Chem. Soc., 71, 3352 (1949); cited from earlier work", "remark": "listed apart in the source"}, "[5]": {"tested_on": "norepinephrine effects on arterial pressure and nictitating membrane", "experiment": "Influence on peripheral noradrenergic phenomena (arterial pressure, nictitating membrane)", "settings": "cat"}, "electrocardiogram": {"tested_on": "electrocardiogram", "experiment": "Electrocardiogram", "assay_type": "in vivo", "settings": "dog, injected, 5 mg/kg"}, "[6]": {"tested_on": "tremorine-induced cholinergic effects", "experiment": "Anti-tremorine test", "assay_type": "in vivo, mice (male, OF1 strain)", "design": "key to central cholinergic effects score (normal and provoked tremor): 0: no action; 1: slight action; 2: average action; 3: strong action; 4: very strong action", "experimental": "When injected into mice, tremorine produces peripheral effects i.e. weeping, sweating, salivation and diarrhoea and central effects i.e. tremor and akinesia. Such effects are due to an increase in the amount of intracerebral acetylcholine and serotonine.\nMale mice of the OF1 strain weighing about 22 g were divided into batches of 10. […] Thirty minutes later a dose of 10 mg/kg of tremorine was injected by intraperitoneal route and, at different times after this injection, note was taken of the cholinergic effects on each animal in accordance with the following scale: […]"}, "[7]": {"tested_on": "norepinephrine effects on arterial pressure and nictitating membrane", "settings": "in vivo, iv"}},
  "note": "Read-outs that look alike come from different tables or passages of the source.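 Throughout, for Index LD50/ED100: LD50 part of every column derived from compounds dosed in aqueous solution, deaths followed over a 10-day observation period after dosing.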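 Throughout, for Index LD50/ED20-30: LD50 part of every column derived from compounds dosed in aqueous solution, deaths followed over a 10-day observation period after dosing.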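 Throughout, for LD50: LD50 part of every column derived from compounds dosed in aqueous solution, deaths followed over a 10-day observation period after dosing.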",
  "data": [
    {"smiles": "CCCC(CCC)(CCC)NCCO", "note": "[Compound 43, N-(2-hydroxyethyl)-1,1-di-n-propyl-n-butylamine]", "values": [
      {"measurement": "Index LD50/ED20-30", "setting": "mice", "result": 23},
      {"measurement": "LD50 at 240 h", "setting": "in vivo", "result": 150, "unit": "mg/kg"},
      {"measurement": "Inhibition of the neuroleptic-induced catatonia", "setting": "[1]; 6.5 mg/kg", "result": "1 (represents 20 to 30% inhibition of catatonia in comparison with the controls (namely a score of 7 to 8 per studied batch))"}
    ]},
    {"smiles": "CCCCC(C)(N)CC(C)C", "note": "(centres unmarked) [Compound 8, 1-Methyl-1-isobutyl-n-pentylamine]", "values": [
      {"measurement": "activity compared with amantadine (neuroleptic-induced catatonia)", "setting": "[1]", "result": "twice as active"}
    ]},
    {"smiles": "CCCC(N)(CC)CCC", "note": "[Compound 2, 1-Ethyl-1-n-propyl-n-butylamine]", "values": [
      {"measurement": "Index LD50/ED20-30", "setting": "mice", "result": 30},
      {"measurement": "Inhibition of the neuroleptic-induced catatonia", "setting": "[1]; 5 mg/kg", "result": "1 (represents 20 to 30% inhibition of catatonia in comparison with the controls (namely a score of 7 to 8 per studied batch))"}
    ]},
    {"smiles": "CCCC(CCC)(CCC)N1CC1", "note": "[Compound 40, N,n-ethylene-1,1-di-n-propyl-n-butylamine]", "values": [
      {"measurement": "Index LD50/ED20-30", "setting": "mice", "result": "> 25"},
      {"measurement": "LD50 at 240 h", "setting": "in vivo", "result": "> 150", "unit": "mg/kg"},
      {"measurement": "Inhibition of reserpine-induced catatonia", "setting": "[2]; 6 mg/kg", "result": "2 (represents 50% inhibition of catatonia in comparison with the controls (namely a score of 5 per studied batch))"},
      {"measurement": "Inhibition of the neuroleptic-induced catatonia", "setting": "[1]; 6 mg/kg", "result": "1 (represents 20 to 30% inhibition of catatonia in comparison with the controls (namely a score of 7 to 8 per studied batch))"},
      {"measurement": "Inhibition of the neuroleptic-induced catatonia", "setting": "[1]; 12 mg/kg", "result": "3 (represents 70 to 80% inhibition of catatonia in comparison with the controls (namely a score of 2 or 3 per studied batch))"}
    ]},
    {"smiles": "CCCCC(N)(CCCC)CCCC", "note": "[Compound 12, 1,1-Di-n-butyl-n-pentylamine]", "values": [
      {"measurement": "Index LD50/ED20-30", "setting": "mice", "result": 25},
      {"measurement": "spasmolytic activity versus the corresponding trialkylethylamines", "setting": "[3]", "result": "less spasmolytic"},
      {"measurement": "toxicity versus the corresponding trialkylethylamines", "setting": "[4]", "result": "more toxic"}
    ]},
    {"smiles": "NC12CC3CC(CC(C3)C1)C2", "note": "[Amantadine, 1-amino-adamantane]", "values": [
      {"measurement": "own effect on contractile reactions of the nictitating membrane", "setting": "[5]", "result": "stimulates the contractile reactions of the nictitating membrane"},
      {"measurement": "potentiation of exogenous norepinephrine / peripheral adrenergic effects", "setting": "[5]", "result": "potentiates the peripheral adrenergic effects"},
      {"measurement": "potentiation of the effects of the electric stimulation", "setting": "[5]", "result": "does not potentiate"},
      {"measurement": "effect on the electrocardiogram / cardiac rhythm", "setting": "electrocardiogram", "result": "provokes cardiac arrhythmia due to ventricular extrasystoles"},
      {"measurement": "central cholinergic effects score (normal and provoked tremor)", "setting": "[6]; 40 mg/kg oral, 20, 30 and 40 minutes after tremorine, printed as identical results", "result": 4},
      {"measurement": "antitremorine properties", "setting": "[6]; mice, oral", "result": "devoid of antitremorine properties"},
      {"measurement": "dose from which exogenous norepinephrine is potentiated", "setting": "[7]; cat", "result": "≥ 1", "unit": "mg/kg"},
      {"measurement": "dose from which ganglioplegic properties are shown", "setting": "[7]; cat", "result": "≥ 5", "unit": "mg/kg"},
      {"measurement": "Contractile reaction of the nictitating membrane with electric stimulation", "setting": "[7]; 0.1 mg/kg", "result": 20, "unit": "mm"},
      {"measurement": "Contractile reaction of the nictitating membrane without electric stimulation", "setting": "[7]; 0.1 mg/kg", "result": 0, "unit": "mm"},
      {"measurement": "Increase in arterial pressure after injection of norepinephrine", "setting": "[7]; 0.1 mg/kg", "result": 29, "unit": "mm Hg"},
      {"measurement": "Contractile reaction of the nictitating membrane with electric stimulation", "setting": "[7]; 1 mg/kg", "result": 20, "unit": "mm"},
      {"measurement": "Contractile reaction of the nictitating membrane without electric stimulation", "setting": "[7]; 1 mg/kg", "result": 3, "unit": "mm"},
      {"measurement": "Increase in arterial pressure after injection of norepinephrine", "setting": "[7]; 1 mg/kg", "result": 35, "unit": "mm Hg"},
      {"measurement": "Contractile reaction of the nictitating membrane with electric stimulation", "setting": "[7]; 3 mg/kg", "result": 16, "unit": "mm"},
      {"measurement": "Contractile reaction of the nictitating membrane without electric stimulation", "setting": "[7]; 3 mg/kg", "result": 4.4, "unit": "mm"},
      {"measurement": "Increase in arterial pressure after injection of norepinephrine", "setting": "[7]; 3 mg/kg", "result": 35, "unit": "mm Hg"},
      {"measurement": "Contractile reaction of the nictitating membrane with electric stimulation", "setting": "[7]; 5 mg/kg", "result": 10, "unit": "mm"},
      {"measurement": "Contractile reaction of the nictitating membrane without electric stimulation", "setting": "[7]; 5 mg/kg", "result": 5.9, "unit": "mm"},
      {"measurement": "Increase in arterial pressure after injection of norepinephrine", "setting": "[7]; 5 mg/kg", "result": 59, "unit": "mm Hg"},
      {"measurement": "Contractile reaction of the nictitating membrane with electric stimulation", "setting": "[7]; 10 mg/kg", "result": 4, "unit": "mm"},
      {"measurement": "Contractile reaction of the nictitating membrane without electric stimulation", "setting": "[7]; 10 mg/kg", "result": 7.5, "unit": "mm"},
      {"measurement": "Increase in arterial pressure after injection of norepinephrine", "setting": "[7]; 10 mg/kg", "result": 57, "unit": "mm Hg"}
    ]},
    {"smiles": "CCCC(CCC)(CCC)N(CCO)CCO", "note": "[Compound 44, N,n-bis-(2-Hydroxyethyl)-1,1-di-n-propyl-n-butylamine]", "values": [
      {"measurement": "Inhibition of the neuroleptic-induced catatonia", "setting": "[1]; 15 mg/kg", "result": "1 (represents 20 to 30% inhibition of catatonia in comparison with the controls (namely a score of 7 to 8 per studied batch))"}
    ]},
    {"smiles": "CCCC(CCC)(NC)C(C)C", "note": "[Compound 30, N-methyl-1-n-propyl-1-isopropyl-n-butylamine]", "values": [
      {"measurement": "Index LD50/ED100", "setting": "mice", "result": "> 25"},
      {"measurement": "LD50 at 240 h", "setting": "in vivo", "result": "> 150", "unit": "mg/kg"},
      {"measurement": "Inhibition of the neuroleptic-induced catatonia", "setting": "[1]; 6 mg/kg", "result": "3 (represents 70 to 80% inhibition of catatonia in comparison with the controls (namely a score of 2 or 3 per studied batch))"}
    ]},
    {"smiles": "CCCC(N)(CC)CC(C)C", "note": "(centres unmarked) [Compound 3, 1-Ethyl-1-isobutyl-n-butylamine]", "values": [
      {"measurement": "Inhibition of the neuroleptic-induced catatonia", "setting": "[1]; 20 mg/kg", "result": "3 (represents 70 to 80% inhibition of catatonia in comparison with the controls (namely a score of 2 or 3 per studied batch))"}
    ]},
    {"smiles": "CCCC(N)(CCC)CC(C)C", "note": "[Compound 5, 1-n-Propyl-1-isobutyl-n-butylamine]", "values": [
      {"measurement": "Inhibition of reserpine-induced catatonia", "setting": "[2]; 20 mg/kg", "result": "2 (represents 50% inhibition of catatonia in comparison with the controls (namely a score of 5 per studied batch))"},
      {"measurement": "activity compared with amantadine (neuroleptic-induced catatonia)", "setting": "[1]", "result": "five times more active"}
    ]},
    {"smiles": "CCCC(CCC)(CCC)NC", "note": "[Compound 27, N-methyl-1,1-di-n-propyl-n-butylamine]", "values": [
      {"measurement": "Index LD50/ED100", "setting": "mice", "result": 16.5},
      {"measurement": "LD50 at 240 h", "setting": "in vivo", "result": 100, "unit": "mg/kg"},
      {"measurement": "Inhibition of the neuroleptic-induced catatonia", "setting": "[1]; 6 mg/kg", "result": "3 (represents 70 to 80% inhibition of catatonia in comparison with the controls (namely a score of 2 or 3 per studied batch))"}
    ]}
  ]
}
